≈ marks a conversion by molar mass, not a printed value. Like-named read-outs stand apart in the source and are kept apart here. Starred links: 1 amine or outer side, 2 acyl side, 3 side chain; linkers in the order of their positions; H or OH if unused. Positions of bridges follow the written chain, without caps; N, C: chain ends. Non-standard residues stand in square brackets, D forms with d. Residues, ends and D or L forms follow the SMILES beside them. Chains are numbered I, II in the order given. Actinocin(9to1) = Cc1c2oc3c(C)ccc(C(=O)[*:1])c3nc-2c(C(=O)[*:2])c(N)c1=O; NMeV = CN[C@H](C(=O)O)C(C)C; Orn = NCCC[C@H](N)C(=O)O; Sar = CNCC(=O)O
System: Bacillus subtilis 168
Test: Determination of the minimum inhibiting agent concentration (MIC)
Type: cell-based
Procedure: The test substance may be an inhibiting agent. The concentration of inhibiting agent with which the bacterial culture is treated should preferably be in the range of 0.1× to 20× the minimum inhibiting agent concentration (MIC) for the test substance. The minimum inhibiting agent concentration is the minimum concentration of an antibiotic which inhibits the growth of a test germ over a period of 18-24 hours. The inhibiting agent concentration can therefore be determined according to standard microbiological procedures (see for example The-National Committee for Clinical Laboratory Standards. Methods for dilution antimicrobial susceptibility tests for bacteria that grow aerobically; approved standard-fifth edition. NCCLS document M7-A5 [ISBN 1-56238-394-9]. NCCLS, 940 West Valley Road, Suite 1400, Wayne, Pa. 19087-1898 USA, 2000.). The test spectra are recorded from a microbial culture that has been treated with the inhibiting agent in one, or preferably in several concentrations.
For the production of an overnight culture, 22 ml of Belitsky Minimal Medium (Stuhlke et al. (1993) Temporal activation of beta-glucauase synthesis in Bacillus subtilis is mediated by the GTP pool. J. Gen. Microbiol. 1993 Sep; 139 (pt 9):2041-5) was injected with an aliquot of the test germ Bacillus subtilis 168 from a permanent culture stored at −80° C., and incubated at 37° C. and 200 rpm.

[1] = B. subtilis 168, Belitsky Minimal Medium, 18-24 hrs at 37° C.
[2] = Bacillus subtilis, B. subtilis 168, Belitsky Minimal Medium, 18-24 hrs at 37° C., read-out: MIC

Row | Molecule | MIC [1] [µg/mL] | MIC [2] [µg/mL] | further results
1 | O=c1[nH]c(=O)n([C@H]2C[C@H](O)[C@@H](CO)O2)cc1F [5-fluor-2-desoxyuridine] | 0.25 (≈ 1.02 µM) |  | 
2 | O=c1[nH]cc(F)c(=O)[nH]1 [5-fluoro-uracile] |  | 0.25 (≈ 1.92 µM) | 
3 | N[C@@H]1CONC1=O [D-cycloserine] | 64 (≈ 627 µM) |  | 
4 | Cc1c2oc3c(C)ccc(C(=O)N[C@@H]4C(=O)N[C@H](C(C)C)C(=O)N5CCC[C@H]5C(=O)N(C)CC(=O)N(C)[C@@H](C(C)C)C(=O)O[C@@H]4C)c3nc-2c(C(=O)N[C@@H]2C(=O)N[C@H](C(C)C)C(=O)N3CCC[C@H]3C(=O)N(C)CC(=O)N(C)[C@@H](C(C)C)C(=O)O[C@@H]2C)c(N)c1=O [actinomycin D] (I: T[dV]P[Sar][NMeV] / II: T[dV]P[Sar][NMeV]; ester I:1-I:C, II:1-II:C; linker I:N-II:N via Actinocin(9to1)) | 1 (≈ 0.797 µM) |  | 
5 | [N-]=[N+]=CC(=O)OC[C@H](N)C(=O)O [azaserine] |  | 4 (≈ 23.1 µM) | 
6 | CC[C@H]1OC(=O)[C@H](C)[C@@H](O[C@H]2C[C@@](C)(OC)[C@@H](O)[C@H](C)O2)[C@H](C)[C@@H](O[C@@H]2O[C@H](C)C[C@H](N(C)C)[C@H]2O)[C@](C)(O)C[C@@H](C)CN(C)[C@H](C)[C@@H](O)[C@]1(C)O [azithromycin] |  | 1 (≈ 1.34 µM) | 
7 | CO[C@@]1(NC(=O)Cc2cccs2)C(=O)N2C(C(=O)O)=C(COC(N)=O)CS[C@@H]21 [cefoxitin] |  | 2 (≈ 4.68 µM) | 
8 | C/C=C/C/C=C/CCC(=O)[C@H]1O[C@H]1C(N)=O [cerulenin] |  | 16 (≈ 71.7 µM) | 
9 | O=C(N[C@H](CO)[C@H](O)c1ccc([N+](=O)[O-])cc1)C(Cl)Cl [chloramphenicol] |  | 4 (≈ 12.4 µM) | 
10 | CC[C@H]1OC(=O)[C@H](C)[C@@H](O[C@H]2C[C@@](C)(OC)[C@@H](O)[C@H](C)O2)[C@H](C)[C@@H](O[C@@H]2O[C@H](C)C[C@H](N(C)C)[C@H]2O)[C@](C)(OC)C[C@@H](C)C(=O)[C@H](C)[C@@H](O)[C@]1(C)O [clarithromycin] |  | 0.0625 (≈ 0.0836 µM) | 
11 | CCC[C@@H]1C[C@@H](C(=O)N[C@@H]([C@H]2O[C@H](SC)[C@H](O)[C@@H](O)[C@H]2O)[C@H](C)Cl)N(C)C1 [clindamycin] |  | 2 (≈ 4.71 µM) | 
12 | COc1cccc2c1C(=O)c1c(O)c3c(c(O)c1C2=O)C[C@@](O)(C(=O)CO)C[C@@H]3O[C@H]1C[C@H](N)[C@H](O)[C@H](C)O1 [doxorubicin] |  | 8 (≈ 14.7 µM) | 
13 | CC[C@H]1OC(=O)[C@H](C)[C@@H](O[C@H]2C[C@@](C)(OC)[C@@H](O)[C@H](C)O2)[C@H](C)[C@@H](O[C@@H]2O[C@H](C)C[C@H](N(C)C)[C@H]2O)[C@](C)(O)C[C@@H](C)C(=O)[C@H](C)[C@@H](O)[C@]1(C)O [erythromycin] |  | 0.5 (≈ 0.681 µM) | 
14 | CC[n+]1c(-c2ccccc2)c2cc(N)ccc2c2ccc(N)cc21.[Br-] [ethidiumbromid] | 4 |  | 
15 | CC(=O)O[C@H]1C[C@@]2(C)[C@@H](C[C@@H](O)[C@H]3[C@@]4(C)CC[C@@H](O)[C@@H](C)[C@@H]4CC[C@@]32C)/C1=C(\CCC=C(C)C)C(=O)O [fusidic acid] |  | 0.5 (≈ 0.968 µM) | 
16 | CC(C)C[C@@H]1NC(=O)[C@H](CCCN)NC(=O)[C@H](C(C)C)NC(=O)[C@@H]2CCCN2C(=O)[C@@H](Cc2ccccc2)NC(=O)[C@H](CC(C)C)NC(=O)[C@H](CCCN)NC(=O)[C@H](C(C)C)NC(=O)[C@@H]2CCCN2C(=O)[C@@H](Cc2ccccc2)NC1=O [gramicidin S] (cyclo(V[Orn]L[dF]PV[Orn]L[dF]P)) | 1 (≈ 0.876 µM) |  | 
17 | NC[C@H]1O[C@H](O[C@H]2[C@H](O)[C@@H](O[C@H]3O[C@H](CO)[C@@H](O)[C@H](N)[C@H]3O)[C@H](N)C[C@@H]2N)[C@H](O)[C@@H](O)[C@@H]1O [kanamycin] |  | 0.5 (≈ 1.03 µM) | 
18 | CC[C@@H](C(=O)[C@@H](C)[C@@H](O)[C@H](C)CCc1ccc(C)c(O)c1C(=O)O)[C@H]1O[C@](CC)([C@H]2CC[C@](O)(CC)[C@H](C)O2)C[C@@H]1C [lasalocid] |  | 1 (≈ 1.69 µM) | 
19 | COc1cccc(OC)c1C(=O)N[C@@H]1C(=O)N2[C@@H]1SC(C)(C)[C@@H]2C(=O)O [methicillin] |  | 0.125 (≈ 0.329 µM) | 
20 | CO[C@@]12[C@H](COC(N)=O)C3=C(C(=O)C(C)=C(N)C3=O)N1C[C@@H]1N[C@@H]12 [mitomycin C] | 0.25 (≈ 0.748 µM) |  | 
21 | CC[C@@]1([C@@H]2O[C@@H]([C@H]3O[C@@](O)(CO)[C@H](C)C[C@@H]3C)C[C@@H]2C)CC[C@H]([C@]2(C)CC[C@]3(C[C@H](O)[C@@H](C)[C@@H]([C@@H](C)[C@@H](OC)[C@H](C)C(=O)O)O3)O2)O1 [monensin] |  | 4 (≈ 5.96 µM) | 
22 | CO[C@@]1(NC(=O)C(C(=O)O)c2ccc(O)cc2)C(=O)N2C(C(=O)O)=C(CSc3nnnn3C)CO[C@@H]21 (some centres unmarked) [moxalactam] |  | 4 (≈ 7.69 µM) | 
23 | C/C(=C\C(=O)OCCCCCCCCC(=O)O)C[C@@H]1OC[C@H](C[C@@H]2O[C@H]2[C@@H](C)[C@H](C)O)[C@@H](O)[C@H]1O [mupirocin] |  | 0.0625 (≈ 0.125 µM) | 
24 | CCn1cc(C(=O)O)c(=O)c2ccc(C)nc21 [nalidixic acid] |  | 32 (≈ 138 µM) | 

Row | Molecule | MIC [1] [µg/mL] | MIC [2] [µg/mL] | further results
25 | CO[C@@H]1C[C@@H](C[C@H]2CC[C@H](C)[C@H]([C@@H](C)C(=O)O)O2)O[C@]2(O[C@](C)([C@H]3CC[C@@](C)([C@@H]4O[C@@H]([C@H]5O[C@@](O)(CO)[C@H](C)C[C@@H]5C)C[C@@H]4C)O3)C[C@H]2C)[C@@H]1C [nigericin] |  | 1 (≈ 1.38 µM) | 
26 | O=C1CN(/N=C/c2ccc([N+](=O)[O-])o2)C(=O)N1 [nitrofurantoin] |  | 16 (≈ 67.2 µM) | 
27 | CO[C@@H]1[C@@H](OC(N)=O)[C@@H](O)[C@H](Oc2ccc3c(O)c(NC(=O)c4ccc(O)c(CC=C(C)C)c4)c(=O)oc3c2C)OC1(C)C [novobiocin] |  | 2 (≈ 3.26 µM) | 
28 | Cc1onc(-c2ccccc2)c1C(=O)N[C@@H]1C(=O)N2[C@@H]1SC(C)(C)[C@@H]2C(=O)O [oxacillin] |  | 0.5 (≈ 1.25 µM) | 
29 | CC1(C)S[C@@H]2[C@H](NC(=O)Cc3ccccc3)C(=O)N2[C@H]1C(=O)O [penicillin G] | 4 (≈ 12 µM) |  | 
30 | Nc1ccc2cc3ccc(N)cc3nc2c1 [proflavin] |  | 8 (≈ 38.2 µM) | 
31 | COc1ccc(C[C@H](N)C(=O)N[C@H]2[C@@H](O)[C@H](n3cnc4c(N(C)C)ncnc43)O[C@@H]2CO)cc1 [puromycin] |  | 8 (≈ 17 µM) | 
32 | CO[C@H]1/C=C/O[C@@]2(C)Oc3c(C)c(O)c4c(O)c(c(/C=N/N5CCN(C)CC5)c(O)c4c3C2=O)NC(=O)/C(C)=C\C=C\[C@H](C)[C@H](O)[C@@H](C)[C@@H](O)[C@@H](C)[C@H](OC(C)=O)[C@@H]1C [rifampicin] |  | 0.25 (≈ 0.304 µM) | 
33 | CN[C@@H]1[C@H](O)[C@H](NC)[C@H]2O[C@@]3(O)C(=O)C[C@@H](C)O[C@H]3O[C@@H]2[C@H]1O [spectinomycin] |  | 16 (≈ 48.1 µM) | 
34 | [H]/N=C(/N)N[C@H]1[C@H](O)[C@@H](O)[C@H](O[C@@H]2O[C@@H](C)[C@](O)(C=O)[C@H]2O[C@@H]2O[C@@H](CO)[C@H](O)[C@@H](O)[C@@H]2NC)[C@@H](N/C(N)=N\[H])[C@@H]1O [streptomycin] |  | 128 (≈ 220 µM) | 
35 | CN(C)[C@@H]1C(=O)C(C(N)=O)=C(O)[C@@]2(O)C(=O)C3=C(O)c4c(O)cccc4[C@@](C)(O)[C@H]3C[C@@H]12 [tetracyclin] | 16 (≈ 36 µM) |  | 
36 | NC[C@H]1O[C@H](O[C@H]2[C@H](O)[C@@H](O[C@H]3O[C@H](CO)[C@@H](O)[C@H](N)[C@H]3O)[C@H](N)C[C@@H]2N)[C@H](N)C[C@@H]1O [tobramycin] |  | 0.0625 (≈ 0.134 µM) | 
37 | COc1cc(Cc2cnc(N)nc2N)cc(OC)c1OC [trimethoprim] |  | 0.5 (≈ 1.72 µM) | 
38 | CN[C@H](CC(C)C)C(=O)N[C@H]1C(=O)N[C@@H](CC(N)=O)C(=O)N[C@H]2C(=O)N[C@H]3C(=O)N[C@H](C(=O)N[C@H](C(=O)O)c4cc(O)cc(O)c4-c4cc3ccc4O)[C@H](O)c3ccc(c(Cl)c3)Oc3cc2cc(c3O[C@@H]2O[C@H](CO)[C@@H](O)[C@H](O)[C@H]2O[C@H]2C[C@](C)(N)[C@H](O)[C@H](C)O2)Oc2ccc(cc2Cl)[C@H]1O [vancomycin] |  |  | MIC (Bacillus subtilis, 168): 0.25 µg/mL (≈ 0.173 µM)
39 | enniatin | 16 |  | 
40 | gentamicin | 0.125 |  | 
41 | gramicidin A | 4 |  | 
42 | mersacidin | 16 |  | 
43 | neomycin | 0.125 |  | 
44 | polymyxin B-sulfate | 16 |  | 
45 | ramoplanin | 1 |  | 
46 | ristocetin | 0.5 |  | 
47 | teichoplanin | 0.125 |  | 
